According to publication PMC8957877, “The Resistance of Cancer Cells to Palbociclib, a Cyclin-Dependent Kinase 4/6 Inhibitor, is Mediated by the ABCB1 Transporter” (Frontiers in Pharmacology, 2022):

Columns and labels:
ABCB1 transporter [1] = molecular target: T1, ABCB1 transporter (Homo sapiens, UniProt P08183)
ABCB1 transporter [2] = molecular target: T1, ABCB1 transporter; assay: biochemical

T1 sequence (P08183 whole entry): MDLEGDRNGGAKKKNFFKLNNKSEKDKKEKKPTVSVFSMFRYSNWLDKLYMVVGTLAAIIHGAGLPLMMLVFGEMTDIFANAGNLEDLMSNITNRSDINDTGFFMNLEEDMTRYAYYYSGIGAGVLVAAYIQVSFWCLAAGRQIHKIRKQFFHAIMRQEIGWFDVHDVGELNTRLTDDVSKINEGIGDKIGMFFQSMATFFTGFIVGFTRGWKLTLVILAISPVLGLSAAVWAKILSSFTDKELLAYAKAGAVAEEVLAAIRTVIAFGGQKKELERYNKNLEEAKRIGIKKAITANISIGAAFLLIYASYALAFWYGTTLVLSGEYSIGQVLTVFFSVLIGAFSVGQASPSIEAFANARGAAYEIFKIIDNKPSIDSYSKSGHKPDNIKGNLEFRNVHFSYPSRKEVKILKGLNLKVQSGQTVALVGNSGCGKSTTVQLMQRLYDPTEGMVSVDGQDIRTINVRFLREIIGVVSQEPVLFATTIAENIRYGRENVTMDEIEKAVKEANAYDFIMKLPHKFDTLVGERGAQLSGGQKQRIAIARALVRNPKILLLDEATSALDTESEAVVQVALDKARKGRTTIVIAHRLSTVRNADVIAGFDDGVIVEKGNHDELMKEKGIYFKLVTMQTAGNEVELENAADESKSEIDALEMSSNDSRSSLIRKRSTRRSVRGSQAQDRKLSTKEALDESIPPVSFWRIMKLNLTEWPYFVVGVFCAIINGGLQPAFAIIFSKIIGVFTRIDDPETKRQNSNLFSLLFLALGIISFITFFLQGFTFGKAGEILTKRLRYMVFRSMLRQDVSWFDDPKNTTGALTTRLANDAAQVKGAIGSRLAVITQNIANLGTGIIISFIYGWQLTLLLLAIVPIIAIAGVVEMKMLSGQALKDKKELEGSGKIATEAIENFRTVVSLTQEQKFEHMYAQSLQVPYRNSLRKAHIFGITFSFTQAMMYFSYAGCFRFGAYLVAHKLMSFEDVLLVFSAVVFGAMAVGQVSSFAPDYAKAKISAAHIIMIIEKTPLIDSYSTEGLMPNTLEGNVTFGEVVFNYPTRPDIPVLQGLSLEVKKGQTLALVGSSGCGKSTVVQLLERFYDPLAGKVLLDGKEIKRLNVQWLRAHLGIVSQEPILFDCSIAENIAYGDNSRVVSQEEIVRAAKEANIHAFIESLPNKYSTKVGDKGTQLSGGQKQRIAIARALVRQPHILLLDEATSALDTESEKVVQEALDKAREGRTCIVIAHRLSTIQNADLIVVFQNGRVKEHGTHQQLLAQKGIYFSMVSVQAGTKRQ

| EC50 (ABCB1 transporter [2]) | Structure (SMILES) | radiolabelled substrate accumulation/efflux in ABCB1-overexpressing KB-C2 vs par (ABCB1 transporter [1]) |
| --- | --- | --- |
| – | CC(=O)O[C@H]1C(=O)[C@@]2(C)[C@H]([C@H](OC(=O)c3ccccc3)[C@]3(O)C[C@H](OC(=O)[C@H](O)[C@@H](NC(=O)c4ccccc4)c4ccccc4)C(C)=C1C3(C)C)[C@]1(OC(C)=O)CO[C@@H]1C[C@@H]2O [[^3H]-paclitaxel] | significantly greater than that of KB-C2 drug-resistant cancer cell line, due to an increase in the extrusion of [^3H]-paclitaxel |
| 4.73 µM | CC(=O)c1c(C)c2cnc(Nc3ccc(N4CCNCC4)cn3)nc2n(C2CCCC2)c1=O [palbociclib] | – |
